According to patent US11261189B2, “Substituted 2,4 diamino-quinoline as new medicament for fibrosis, autophagy and cathepsins B (CTSB), L (CTSL) and D (CTSD) related diseases” (Genoscience Pharma, priority 2018, dated 2022):
“Also recorded” adds a separate entry of the source. Structures can show the parent of a compound that is named as a salt.

System: autophagy flux (LC3-II) in Huh7 cell line
Assay: Autophagy flux, LC3-II immunoblot with/without Bafilomycin, Huh7 cell line
Format: cell-based
Settings: 4 hours and 24 hours of treatment
Protocol: Since compound 2-3 induced an inhibition of the proteolytic activity of cathepsins B, D and/or L (see example 1) supporting an inhibition of some lysosomal functions which can affect the cellular autophagy flux, the capacity of compound 2-3 to modulate the cellular autophagy processes and functions was evaluated in two Hepatocellular carcinoma (HCC) cell lines: Huh7 and HepG2. For this purpose, the accumulation of LC3-II (Light Chain 3 phosphatidylethanolamine conjugate) in presence or absence of compound 2-3 was analyzed using immunoblot analysis of LC3-II.
The HepG2 cell line was maintained in DMEM low glucose (Cat #21885025, ThermoFischer) containing 1% penicillin-streptomycin (Cat #P06-07100, Dutscher) and 10% FBS (Cat #SV30160.03C, Dutscher). The Huh7 cell line was maintained in DMEM high glucose (Cat #L0103-500, Dutscher) containing 1% penicillin-streptomycin (Cat #P06-07100, Dutscher) and 10% SVF (Cat #SV30160.03C, Dutscher). Cells lines were cultured at 37° C. with 5% CO2.
The day before the experiment, 6-well plates with 250,000 cells for HepG2 and 310,000 cells for Huh7 in 1.8 mL of medium per well were prepared. […]
After 4 hours and 24 hours of cells treatment, the medium was removed from each well. […] Total protein concentration was assessed using the BCA reagent (Cat #23227, ThermoFischer) and cellular lysates were stored at −80° C. until western-blot analysis. […]

SMILES: CC(C)(C)NC1CCN(c2cc(NCc3ccc(Cl)cc3)nc3ccccc23)CC1 [2-3, 2-(4-chlorobenzylamino)-4-(4-tert-butylaminopiperidin-1-yl)-quinoline Hydrochloride Salt]
- accumulation of the LC3-II form: significantly induced, in a dose-dependent manner, an accumulation of the LC3-II form
- autophagy flux (LC3-II Baf+/Baf− ratio) (Hydrochloride Salt): inhibition; also recorded: inhibitor of the autophagy flux
